The source of these data is patent US20240050577A1, “CDK INHIBITORS AND PHARMACEUTICAL USES THEREOF” (RISEN (SUZHOU) PHARMA TECH CO., LTD., priority 2022, published 2024).

Where only a bound is given, the exact number is not on record here.

In one assay the test system is OVCAR3 cells. Briefly: Cell proliferation study (Cell Titer Glo, 72 h). In kind it is cell-based. Conditions: Homo sapiens, OVCAR-3, luminescence, read-out: IC50, inhibitory effect on cellular proliferation. As for the experimental part:
OVCAR3 (Cobioer, CBP60294) cell line in logarithmic growth phase was used for these experiments. The cell density was adjusted to 1.1×10^4/mL and the cells were inoculated into a 96-well cell culture plate (Corning, 3599), 95 μL per well (the number of cells per well was 1×10^3). The culture plate was placed in an incubator, with 5% carbon dioxide, at 37° C. and incubated overnight. On the next day, a 10 mM stock solution of test compound was prepared in DMSO (Sigma, RNBF5902). After gradient dilution, a series of working solutions with different concentrations of test compound was prepared using complete medium. Working solution was added into the corresponding wells of the orifice plate, and the plate was placed in a 5% carbon dioxide incubator and cultivated at 37° C. for 72 h, and then removed from the incubator. To each well was added 50 μL Cell Tier Glo (Promega, G7573), and the plate was incubated at room temperature for 10 min, followed by luminescence detection with an enzyme marker. The inhibition curve was obtained with GraphPad 7.0 software using four-parameter equation.
(In general: Cellular ATP, detected with luciferase, serves as a proxy for viable cell number.)
For the compound `Cc1nc2c(F)cc(-c3nc(Nc4ccc(S(=O)(=O)C5CCN(C6CN(C7CCN(c8cc9c(cc8F)C(=O)N(C8CCC(=O)NC8=O)C9=O)CC7)C6)CC5)cc4)ncc3F)cc2n1C(C)C` (stereo not drawn) [Compound 66], the IC50 was less than 100 nM.

For `C[C@@]1(O)CCC[C@H]1n1c(=O)ccc2cnc(NC3CCN(S(=O)(=O)CCCCCCCCCOc4cccc5c4C(=O)N(C4CCC(=O)NC4=O)C5=O)CC3)nc21` (stereo partly drawn) [Compound 92], the IC50 was more than 10000 nM.

`CC(C)N1CCOc2c(F)cc(-c3nc(Nc4ccc(S(=O)(=O)N5CCN(C6CC7(CCN(c8cccc9c8C(=O)N(C8CCC(=O)NC8=O)C9=O)CC7)C6)CC5)cc4)ncc3F)cc21` (stereo not drawn) [Compound 72]: the IC50 was more than 10000 nM.

Turning to `C[C@@]1(O)CCC[C@H]1n1c(=O)ccc2cnc(NC3CCN(S(=O)(=O)C4CCN(C5CCC6(CC5)CCN(c5cc7c(cc5F)C(=O)N(C5CCC(=O)NC5=O)C7=O)CC6)CC4)CC3)nc21` (stereo partly drawn) [Compound 89], the IC50 fell in the range of 101 to 1000 nM.

On to `C[C@@]1(O)CCC[C@H]1n1c(=O)ccc2cnc(NC3CCN(S(=O)(=O)C4CCN(C(=O)C5CCC6(CC5)CCN(c5cc7c(cc5F)C(=O)N(C5CCC(=O)NC5=O)C7=O)CC6)CC4)CC3)nc21` (stereo partly drawn) [Compound 78], for which the IC50 is 101 to 1000 nM.

`C[C@@]1(O)CCC[C@H]1n1c(=O)ccc2cnc(NC3CCN(S(=O)(=O)C4CCN(C5CC(C6CCN(c7cc8c(cc7F)C(=O)N(C7CCC(=O)NC7=O)C8=O)CC6)C5)CC4)CC3)nc21` (stereo partly drawn) [Compound 96]: the IC50 is more than 10000 nM.

Consider `C[C@@]1(O)CCC[C@H]1n1c(=O)ccc2cnc(Nc3ccc(S(=O)(=O)C4CCN(CC5CCN(c6cccc7c6C(=O)N(C6CCC(=O)NC6=O)C7=O)CC5)CC4)cc3)nc21` (stereo partly drawn) [Compound 44], for which the IC50 is more than 10000 nM.

In the case of `Cc1nc2c(F)cc(-c3nc(Nc4ccc(S(=O)(=O)NCCOCc5cn(CCOCCOCCNc6cccc7c6C(=O)N(C6CCC(=O)NC6=O)C7=O)nn5)cc4)ncc3F)cc2n1C(C)C` (stereo not drawn) [Compound 50], the IC50 was 1000 to 5000 nM.

Consider `CC(C)N1CCOc2c(F)cc(-c3nc(Nc4ccc(C5CCN(C(=O)COCCOCCNc6cccc7c6C(=O)N(C6CCC(=O)NC6=O)C7=O)CC5)cn4)ncc3F)cc21` (stereo not drawn) [Compound 5], for which the IC50 was less than 100 nM.

As for `Cc1nc2c(F)cc(-c3nc(NC4CCN(S(=O)(=O)C5CCN(C6CC7(CCN(c8cc9c(cc8F)C(=O)N(C8CCC(=O)NC8=O)C9=O)CC7)C6)CC5)CC4)ncc3F)cc2n1C(C)C` (stereo not drawn) [Compound 75], the IC50 lay in the range of 1000 to 5000 nM.

For the compound `CC(C)N1CCOc2c(F)cc(-c3nc(Nc4ccc(S(=O)(=O)N5CCN(C6CCN(C7CN(c8cccc9c8C(=O)N(C8CCC(=O)NC8=O)C9=O)C7)CC6)CC5)cc4)ncc3F)cc21` (stereo not drawn) [Compound 55], the IC50 was more than 10000 nM.

Consider `C[C@@]1(O)CCC[C@H]1n1c(=O)ccc2cnc(NC3CCN(S(=O)(=O)C4CCN(C(=O)C56CC(NCC7CCN(c8cc9c(cc8F)C(=O)N(C8CCC(=O)NC8=O)C9=O)CC7)(C5)C6)CC4)CC3)nc21` (stereo partly drawn) [Compound 36], for which the IC50 was in the range of 101 to 1000 nM.

Turning to `CC(C)N1CCOc2c(F)cc(-c3nc(Nc4ccc(C5CCN(C(=O)CCCCCCCCOc6cccc7c6C(=O)N(C6CCC(=O)NC6=O)C7=O)CC5)cn4)ncc3F)cc21` (stereo not drawn) [Compound 7], the IC50 is more than 10000 nM.

With `C[C@@]1(O)CCC[C@H]1n1c(=O)ccc2cnc(NC3CCN(S(=O)(=O)C4CCN(C5CCC6(CCN(c7cc8c(cc7F)C(=O)N(C7CCC(=O)NC7=O)C8=O)C6)C5)CC4)CC3)nc21` (stereo partly drawn) [Compound 84], the IC50 was 101 to 1000 nM.

Turning to `CC(C)N1CCOc2c(F)cc(-c3nc(NC4CCN(S(=O)(=O)C5CCN(CC6CCN(c7ccc8c(c7)C(=O)N(C7CCC(=O)NC7=O)C8=O)CC6)CC5)CC4)ncc3F)cc21` (stereo not drawn) [Compound 19, 2-(2,6-dioxo-3-piperidyl)-5-[4-[[4-[[4-[[5-fluoro-4-(8-fluoro-4-isopropyl-2,3-dihydro-1,4-benzoxazin-6-yl)pyrimidin-2-yl]amino]-1-piperidyl]sulfonyl]-1-piperidyl]methyl]-1-piperidyl]isoindoline-1,3-dione], the IC50 lay in the range of 101 to 1000 nM.

For the compound `CC(C)N1CCOc2c(F)cc(-c3nc(Nc4ccc(C5CCN(CCCCCCCCCOc6cccc7c6C(=O)N(C6CCC(=O)NC6=O)C7=O)CC5)cn4)ncc3F)cc21` (stereo not drawn) [Compound 1], the IC50 was more than 10000 nM.

As for `CC(C)N1CCOc2c(F)cc(-c3nc(Nc4ccc(S(=O)(=O)N5CCN(C6CN(C7CCN(c8cccc9c8C(=O)N(C8CCC(=O)NC8=O)C9=O)CC7)C6)CC5)cc4)ncc3F)cc21` (stereo not drawn) [Compound 52], the IC50 was in the range of 1000 to 5000 nM.

On to `CC(C)N1CCOc2c(F)cc(-c3nc(Nc4ccc(C5CCN(CCCCNC(=O)COc6cccc7c6C(=O)N(C6CCC(=O)NC6=O)C7=O)CC5)nc4)ncc3F)cc21` (stereo not drawn) [Compound 30], for which the IC50 lay within 101 to 1000 nM.

In the case of `CC(C)N1CCOc2c(F)cc(-c3nc(Nc4ccc(C5CCN(CCCCCCOc6cccc7c6C(=O)N(C6CCC(=O)NC6=O)C7=O)CC5)cn4)ncc3F)cc21` (stereo not drawn) [Compound 28], the IC50 is more than 10000 nM.

Turning to `C[C@@]1(O)CCC[C@H]1n1c(=O)ccc2cnc(NC3CCN(S(=O)(=O)N4CCN(CC5CCN(c6cc7c(cc6F)C(=O)N(C6CCC(=O)NC6=O)C7=O)CC5)CC4)CC3)nc21` (stereo partly drawn) [Compound 60], the IC50 was in the range of 1000 to 5000 nM.

As for `CC(C)N1CCOc2c(F)cc(-c3nc(Nc4ccc(C5CCN(CCOCCOCCOCCNc6cccc7c6C(=O)N(C6CCC(=O)NC6=O)C7=O)CC5)cn4)ncc3F)cc21` (stereo not drawn) [Compound 6], the IC50 lay within 1000 to 5000 nM.

For the compound `Cc1nc2c(F)cc(-c3nc(Nc4ccc(S(=O)(=O)N5CCN(CC6CCN(c7cccc8c7C(=O)N(C7CCC(=O)NC7=O)C8=O)CC6)CC5)cc4)ncc3F)cc2n1C(C)C` (stereo not drawn) [Compound 57], the IC50 fell in the range of 101 to 1000 nM.

On to `Cc1nc2c(F)cc(-c3nc(Nc4ccc(S(=O)(=O)NCCOCCOCCOCCNc5cccc6c5C(=O)N(C5CCC(=O)NC5=O)C6=O)cc4)ncc3F)cc2n1C(C)C` (stereo not drawn) [Compound 48], for which the IC50 is 1000 to 5000 nM.

For the compound `Cc1nc2c(F)cc(-c3nc(NC4CCN(S(=O)(=O)C5CCN(CC6CC7(CCN(c8cc9c(cc8F)C(=O)N(C8CCC(=O)NC8=O)C9=O)CC7)C6)CC5)CC4)ncc3F)cc2n1C(C)C` (stereo not drawn) [Compound 98], the IC50 was in the range of 101 to 1000 nM.

With `Cc1nc2c(F)cc(-c3nc(NC4CCN(S(=O)(=O)C5CCN(CC6CC7CCC(C6)N7c6cc7c(cc6F)C(=O)N(C6CCC(=O)NC6=O)C7=O)CC5)CC4)ncc3F)cc2n1C(C)C` (stereo not drawn) [Compound 99], the IC50 lay in the range of 101 to 1000 nM.

As for `C[C@@]1(O)CCC[C@H]1n1c(=O)ccc2cnc(Nc3ccc(S(=O)(=O)C4CCN(C5CC6(C5)CN(c5cc7c(cc5F)C(=O)N(C5CCC(=O)NC5=O)C7=O)C6)CC4)cc3)nc21` (stereo partly drawn) [Compound 76], the IC50 was more than 10000 nM.

On to `C[C@@]1(O)CCC[C@H]1n1c(=O)ccc2cnc(NC3CCN(S(=O)(=O)C4CCN(CC5CC6(CCN(c7cc8c(cc7F)C(=O)N(C7CCC(=O)NC7=O)C8=O)CC6)C5)CC4)CC3)nc21` (stereo partly drawn) [Compound 82], for which the IC50 lay within 101 to 1000 nM.

On to `Cc1nc2c(F)cc(-c3nc(Nc4ccc(S(=O)(=O)N5CCC6(CCN(C(=O)COc7cccc8c7C(=O)N(C7CCC(=O)NC7=O)C8=O)CC6)CC5)cc4)ncc3F)cc2n1C(C)C` (stereo not drawn) [Compound 39], for which the IC50 fell in the range of 1000 to 5000 nM.

Take `Cc1nc2c(F)cc(-c3nc(NC4CCN(S(=O)(=O)C5CN(CC6CN(c7cc8c(cc7F)C(=O)N(C7CCC(=O)NC7=O)C8=O)C6)C5)CC4)ncc3F)cc2n1C(C)C` (stereo not drawn) [Compound 109]: the IC50 is 1000 to 5000 nM.

Take `Cc1nc2c(F)cc(-c3nc(N[C@@H]4CCN(S(=O)(=O)C5CCN(CC6CCN(c7cc8c(cc7F)C(=O)N(C7CCC(=O)NC7=O)C8=O)CC6)CC5)C[C@H]4O)ncc3Cl)cc2n1C(C)C` (stereo partly drawn) [Compound 112]: the IC50 was in the range of 101 to 1000 nM.

In the case of `Cc1nc2c(F)cc(-c3nc(Nc4ccc(S(=O)(=O)NCCOCCOCCNc5cc6c(cc5F)C(=O)N(C5CCC(=O)NC5=O)C6=O)cc4)ncc3F)cc2n1C(C)C` (stereo not drawn) [Compound 69], the IC50 fell in the range of 1000 to 5000 nM.

On to `C[C@@]1(O)CCC[C@H]1n1c(=O)ccc2cnc(NC3CCN(S(=O)(=O)C4CCN(C5CC6(CC(NC(=O)C7CCN(c8cc9c(cc8F)C(=O)N(C8CCC(=O)NC8=O)C9=O)CC7)C6)C5)CC4)CC3)nc21` (stereo partly drawn) [Compound 86], for which the IC50 is 101 to 1000 nM.

With `C[C@@]1(O)CCC[C@H]1n1c(=O)ccc2cnc(NC3CCN(S(=O)(=O)C4CCN(C(=O)C5CCN(c6cc7c(cc6F)C(=O)N(C6CCC(=O)NC6=O)C7=O)CC5)CC4)CC3)nc21` (stereo partly drawn) [Compound 67], the IC50 was in the range of 101 to 1000 nM.

As to `Cc1nc2c(F)cc(-c3nc(Nc4ccc(S(=O)(=O)NCCOCCOCCNc5cccc6c5C(=O)N(C5CCC(=O)NC5=O)C6=O)cc4)ncc3F)cc2n1C(C)C` (stereo not drawn) [Compound 49], the IC50 fell in the range of 1000 to 5000 nM.

In the case of `C[C@@]1(O)CCC[C@H]1n1c(=O)ccc2cnc(NC3CCN(S(=O)(=O)C4CCN(C5CC6(C5)CN(C(=O)C5CCN(c7cc8c(cc7F)C(=O)N(C7CCC(=O)NC7=O)C8=O)CC5)C6)CC4)CC3)nc21` (stereo partly drawn) [Compound 85], the IC50 is 1000 to 5000 nM.

Turning to `C[C@@]1(O)CCC[C@H]1n1c(=O)ccc2cnc(NC3CCN(S(=O)(=O)C4CCN(C(=O)CC5CCN(c6cc7c(cc6F)C(=O)N(C6CCC(=O)NC6=O)C7=O)CC5)CC4)CC3)nc21` (stereo partly drawn) [Compound 62], the IC50 fell in the range of 1000 to 5000 nM.

With `C[C@@]1(O)CCC[C@H]1n1c(=O)ccc2cnc(NC3CCN(S(=O)(=O)N4CCN(CC5CCN(c6cc7c(cc6F)C(=O)N(C6CCC(=O)NC6=O)C7=O)C5)CC4)CC3)nc21` (stereo partly drawn) [Compound 61], the IC50 lay within 101 to 1000 nM.

Turning to `CC(C)N1CCOc2c(F)cc(-c3nc(Nc4ccc(S(=O)(=O)N5CCN(CC6CCN(c7cccc8c7C(=O)N(C7CCC(=O)NC7=O)C8=O)CC6)CC5)cc4)ncc3F)cc21` (stereo not drawn) [Compound 54], the IC50 was more than 10000 nM.

The assay is the same for the next values; noted with them: luminescence, read-out: IC50, inhibitory effect on cellular proliferation.
With `CC(C)N1CCOc2c(F)cc(-c3nc(Nc4ccc(C5CCN(CCCCCCOc6cccc7c6C(=O)N(C6CCC(=O)NC6=O)C7=O)CC5)cn4)ncc3F)cc21` (stereo not drawn) [Compound 3], the IC50 was more than 10000 nM.
